This note sets out measurements from patent publication US20220354911A1, “TREATMENT OF TUMORS BY A COMBINATION OF AN ONCOLYTIC ADENOVIRUS, A CDK4/6 INHIBITOR AND A FURTHER THERAPEUTICALLY ACTIVE AGENT” (KLINIKUM RECHTS DER ISAR DER TECHNISCHEN UNIVERSITÄT MÜNCHEN, priority 2019, published 2022).

One test concerns dl703. Nature of the test: E1A-independent viral DNA replication of dl703 (fiber qPCR). Type of test: cell-based, Mastadenovirus, Type C, Serotype 5. The conditions noted are these: UMUC cells, 10 μM Lee, 50 MOI dl703, 48 hours post infection. How it is done:
To investigate the differences in replication of dl703 (Mantwill et al. 2013, Journal of Translational Medicine, 11, 216) under different treatment conditions, DNA-replication analysis was performed. 100,000 UMUC cells were seeded in 6-well plates and grown in DMEM medium containing 10% FCS in 5% CO2 conditions at 37° C. 24 hours post seeding cells were treated for 24 hours with 10 μM Lee (Ribociclib), 1 μM CI-1040, 10 μM Nutlin-3a and 10 μM Roscovertine and again after infection adding an appropriate amount of inhibitors to the medium. Infection with 50 MOI dl703 (Mastadenovirus, Type C, Serotype 5 with a 3.2 kb sized deletion in E1 region) took place 24 hours post treatment. After 4 and 48 hours post infection DNA were isolated and qPCR was performed using specific primers for the viral fiber gene. Fiber fwd. 5′-[…]-3′ (SEQ ID NO: 17); Fiber rev. 5′-[…]-3′ (SEQ ID NO: 18).
(In general: Quantitative PCR measures a nucleic acid by following its amplification.)

Another test has as its system Rb, phRB and E2F1. Nature of the test: Western blot of UMUC cells treated with cell cycle inhibitors. The test is classed as cell-based, human. The conditions noted are these: 24 hours post-treatment, LEE-011 at 10 μM, MI-1040 at 1 μM. Here is the method: Western Blot analysis of UMUC cells treated with indicated concentrations of CI-1040, Roscovitine, Nutlin-3a and LEE011 (Ribociclib). 1×10^6 cells were seeded in 10 cm dishes. 24 hours post-treatment proteins were isolated using 1% SDS buffer, to achieve the disruption of the nuclear membrane. All samples were drawn up several times into a syringe to disrupt the DNA and subsequently centrifuged at 30000 rpm at 4° C. for 30 minutes. The supernatant was transferred to a new reaction tube and directly used for further steps or stored at −80° C. To separate the proteins a sodium dodecyl sulfate polyacrylamide gel electrophoresis was performed. By means of electrophoresis for approximately two hours at 100V at 4° C., 40 μg of total proteins were loaded and probed against specific indicated antibodies.
In general terms: A western blot detects proteins with antibodies after separation by electrophoresis.

The test system of the next test is LN229 cells. In words: Western blot of XVir-N-31 infected LN229 cells, LEE011 and JQ1. Type of test: cell-based. Here is the method: 2.5×10^5 LN229 cells were seeded in 10 cm plates in DMEM medium. The following day the cells were treated with 500 nM LEE011 and 200 nM JQ1 or a combination of both. At the next morning the cells were infected with XVir-N-31 at 20 MOI. One hour after infection DMEM Medium containing the inhibitors was added on the cells. After each time point (24, 48, 72 hours) the cells were put on ice, washed twice with ice-cold PBS and 300 μl of SDS Protein Lysis Buffer was added. The cells were transferred to reaction tubes and the DNA sheared with a syringe and a needle and the supernatant transferred for further use after centrifugation. The protein concentration was measured with a BCA assay and samples with 4× Lämmli:DTT 6:1 and a concertation of 20 μg were produced and transferred to a 10% SDS gel. The gel electrophoresis started at 90V and was increased to 150V after the ladder started to separate. The proteins on the gel were blotted to a membrane for 2 hours at 100V and blocked in 5% milk in TBS-T for 1 hour at RT. After washing in TBS-T, the first antibody was added according to the manufacturer's information over night at 4° C. The used antibodies were directed to GAPDH, E1A, DBP, E2F1, Rb, pRb for all time points, and caspase 3 and the full length and cleaved version of PARP additionally for the 72 hours samples. The next day, the washing was repeated and the secondary antibody added for 1 hour at RT. Following the washing, ECL was used to image the chemiluminescence by the ChemiDoc™ MP Imaging System.

A further test relates to UMUC3 cells. In words: Cell cycle analysis (flow cytometry) of UMUC3 cells. The test is classed as cell-based, human. The conditions noted are these: UMUC3, 48 hours; Roscovitine 10 μM, CI-1040 1 μM, Nutlin-3a 10 μM, LEE011 10 μM; 10 MOI dl703. Here is the method:
FIG. 10 is a bar diagram showing cell cycle distribution in UMUC3 cells, measured 48 hours post treatment, whereby the concentrations of the […] inhibitors was as follows: Roscovitine: 10 μM, CI-1040: 1 μM, Nutlin-3a: 10 μM, and LEE011: 10 μM.
For cell cycle analysis cells were seeded in 6 well plates (2.5×10E4 c/well). 8 hours before infection with dl703, cells were treated with indicated concentration of cell cycle inhibitors. After infection with 10 MOI dl703 cells were again treated for 48 hours. Untreated cells and dl703 infected cells only, served as control. 48h post infection cells were harvest by trypsinization and fixed with 80% ethanol while vortexing. To investigate the cell cycle status, fixed cells were centrifuged 5 min at RT and 300 g and ethanol was aspirated. Cells were resuspended and washed with 1% BSA-PBS (Bovine Serum Albumin) and again centrifuged. Cells were stained with EDU and cell cycle analysis were performed using the Click-iT™ Plus EdU Flow Cytometry Assay Kits, Catalog nos. C10632 from Thermo Fischer. In addition, after 3× times washing with 1% BSA/PBS cells were stained with PI (Propidium Iodine, 50 μg/ml). Measurement was directly performed after staining with a FACScalibur Flow Cytometry System. Data was analyzed with FlowJo software.
On the technique in general: A flow cytometer gives signals particle by particle.

The subject of test [1] is U87 cells, LN229 cells or T98G cells. In words: SRB cell survival in glioblastoma cells, XVir-N-31, JQ1 and LEE011. The test is classed as cell-based. The conditions noted are these: all three glioblastoma cell lines. Here is the method: 2×10^4 cells (U87 cells, LN229 cells or T98G cells) were seeded in 12 well plates in DMEM medium and inhibitor treated at the next day. 48 hours post seeding the cells were infected with XVir-N-31. After 4 days the cells were fixated using 10% TCA. The plates were stained using a 0.1% SRB solution. The surplus was removed and the plates were washed with 1% acetic acid. After removing the acetic acid, the plates were air dried overnight. The SRB was solved in 1 ml of a 10 mM Tris Base solution and a 1:10 dilution was measured using a photometer at 560 nm.

Where [2] appears, read: LN229, with XVir-N-31, 48 hours post infection.
Where [3] appears, read: LN229, with XVir-N-31, 72 hours post infection.

On to `CN(C)C(=O)c1cc2cnc(Nc3ccc(N4CCNCC4)cn3)nc2n1C1CCCC1` [LEE011], for which, in the test with dl703, the “increase of viral DNA replication of dl703” value is reported as roughly 100 fold. Besides, the “Rb, phRB and E2F1 expression” value with Rb, phRB and E2F1 was “induced inhibition”. Besides, the “viral proteins E1A and DBP” value with LN229 cells (LN229, XVir-N-31 MOI 20, 500 nM LEE011 or/and 200 nM JQ-1, 24 hours post infection) was “increased”; with LN229 cells (LN229, XVir-N-31 MOI 20, 500 nM LEE011 or/and 200 nM JQ-1, 48 hours post infection), “increased”; with LN229 cells (LN229, XVir-N-31 MOI 20, 500 nM LEE011 or/and 200 nM JQ-1, 72 hours post infection), “increased”. For the same compound, the “cellular proteins Rb and pRb” value with LN229 cells (LN229, with XVir-N-31, 24 hours post infection) is “remained inhibited”; in the test on LN229 cells (setting [2]) it was “remained inhibited”. In addition, the E2F-1 entry in the test with LN229 cells (setting [2]) is recorded as “stabilized”. Besides, the E2F1 result in the test with LN229 cells (setting [3]) is “enhanced”. Besides, the “cellular protein Rb” value in the test with LN229 cells (setting [3]) is “decreased”. Besides, the “presence of cleaved PARP” value in the test on LN229 cells (XVir-N-31 infected LN229 cells, 72 hours post infection) is reported as “increased”. Besides, in the test on UMUC3 cells, the cell cycle distribution entry is “clear G1-arrest”. For the same compound, in test [1], the “cell killing on addition of LEE011 to JQ1 and XVir-N-31” value is recorded as “increased even further”.
